Assay results published in patent US8394791B2, “Crystalline, enantiomerically pure salt form of a beta-agonist, and the use thereof as a drug” (Boehringer Ingelheim International GmbH, priority 2008, dated 2013).

Experiments:
[1] = Sorption profile (DVS sorption balance), hygroscopic characteristics; format: physicochemical; conditions: relative humidity range between 10-90%; crystalline form
Description: Sorption Profile (DSV Diagram, Kinetic & Isothermic Plot, FIG. 3)
Technical Data Relating to the Sorption Balance Used:
DVS-1 made by Surface Measurement Systems (=SMS) for analysing the hygroscopic characteristics; humidity profile of 10-90% r.h. In 10% steps, recording both a sorption and a desorption profile, weight: 10-20 mg

Thermoanalysis (DSC/TG) = format: physicochemical; conditions: heating rate 10 K/min, crystalline form (FIG. 2)
Description: Thermoanalysis (DSC/TG Diagram, FIG. 2)
Technical Data Relating to the Thermoanalytical DSC Device Used:
DSC 822 made by Mettler Toledo; heating rate: 10 K/min; type of crucible: perforated aluminium crucible; atmosphere: N2, 80 ml/min flux; weight: 3-10 mg.
Technical Data Relating to the Thermoanalytical TG Device Used:
TGA/SDTA 851 Made by Mettler Toledo with IR coupling (Nicolet FT-IR 4700) for analysing the volatile fractions driven off; heating rate: 10 K/min; type of crucible: open aluminium oxide crucible; atmosphere: N2, 20 ml/min flux; weight: 15-25 mg.

water absorption [1]: less than 0.5 wt. %
thermally stable at a thermal load of up to (Thermoanalysis (DSC/TG)): up to 210 °C
Structure (SMILES): CCC1(CC)OC(=O)N(CCC(C)(C)NC[C@H](O)c2ccc(O)c(NS(C)(=O)=O)c2)c2ccccc21 [compound 1, N-(5-{(R)-2-[3-(4,4-diethyl-2-oxo-4H-benzo[d][1,3]oxazin-1-yl)-1,1-dimethyl-propylamino]-1-hydroxy-ethyl}-2-hydroxy-phenyl)-methanesulphonamide]
